The values below come from US20080299140A1, “Immunogenic Composition and Peptide Sequences for Prevention and Treatment of an Hsv Condition” (priority 2002, published 2008).

The structures appear in SMILES notation. Like-named read-outs stand apart in the source and are kept apart here.

The target of assay [1] is T1, DR7=HLA-DR(α1*0101,α1*0701) (Homo sapiens, UniProt P01903+P01911, A100R/A102G/A103Q/D57E/D86V/E43K/F76Y/K127E/L162R/M171V/P40G/Q125H/Q99D/R33Q/R42Y/R54Q/S133A/S66F/T210M/V115G/Y107V/Y59L/Y89S).
T1 construct: endogenous in cells; host or cells: EBV homozygous human B cell line
Description: HLA-DR specific binding assay, DR7.

Assay [2] has as its target T2, DP402 DP (α1*0101, α1*0402) (Homo sapiens, UniProt P04440+P20036, A65V/A84D/A85E/L207M).
T2 sequence (P20036 29-260): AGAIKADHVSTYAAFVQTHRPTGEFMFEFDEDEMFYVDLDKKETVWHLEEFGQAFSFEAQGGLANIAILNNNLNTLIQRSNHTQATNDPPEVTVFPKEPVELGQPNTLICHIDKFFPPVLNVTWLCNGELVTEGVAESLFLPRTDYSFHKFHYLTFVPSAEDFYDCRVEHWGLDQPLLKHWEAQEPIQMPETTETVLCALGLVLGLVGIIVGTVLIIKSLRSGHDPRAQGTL
T2 sequence (P04440 30-258 A65V/A84D/A85E): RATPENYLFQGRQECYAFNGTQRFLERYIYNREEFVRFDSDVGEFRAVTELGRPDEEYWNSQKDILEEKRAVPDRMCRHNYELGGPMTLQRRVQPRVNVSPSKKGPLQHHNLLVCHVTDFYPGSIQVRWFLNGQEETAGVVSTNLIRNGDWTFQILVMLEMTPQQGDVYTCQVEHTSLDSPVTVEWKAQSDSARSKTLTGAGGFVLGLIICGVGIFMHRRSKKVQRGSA
In words: biochemical. Type of assay: binding.

A further assay addresses T3, I-E^d molecule (Mus musculus, UniProt P01904+P01915).
T3 sequence (P01904 26-255): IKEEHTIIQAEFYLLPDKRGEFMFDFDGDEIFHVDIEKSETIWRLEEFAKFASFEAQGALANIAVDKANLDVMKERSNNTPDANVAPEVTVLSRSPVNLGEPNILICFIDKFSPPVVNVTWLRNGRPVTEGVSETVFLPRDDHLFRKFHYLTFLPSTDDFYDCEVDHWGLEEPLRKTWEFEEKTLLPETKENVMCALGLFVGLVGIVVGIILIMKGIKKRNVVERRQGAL
T3 sequence (P01915 32-264): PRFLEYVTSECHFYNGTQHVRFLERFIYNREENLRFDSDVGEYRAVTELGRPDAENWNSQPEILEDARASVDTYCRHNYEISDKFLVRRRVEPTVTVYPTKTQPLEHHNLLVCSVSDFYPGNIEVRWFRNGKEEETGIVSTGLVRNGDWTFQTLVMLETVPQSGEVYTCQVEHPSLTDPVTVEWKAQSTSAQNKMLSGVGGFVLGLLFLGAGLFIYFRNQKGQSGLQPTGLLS
In words: Binding to I-E^d molecule. Further details: species or system mice.

For assay [3], the target named is T4, DR11=HLA-DR(α1*0101,α1*1101) (Homo sapiens, UniProt P01903+P01911, A100R/A169T/A87E/I96F/K41T/L162R/M171V/P40S/Q125H/Q178H/Q39Y/Q99D/R42S/S66Y/T262R/V115G/W38E).
T4 construct: endogenous in cells; host or cells: SWEIG (EBV homozygous B cell line)
In words: biochemical. The format is binding.

Another assay has as its system T-cells. In words: Cytokine analysis (IL-2, IL-4, IFN-γ sandwich ELISA). The format is cell-based, mice. How it is done: T-cells were stimulated with either immunizing peptides (10 μg/ml), the irrelevant control peptide (10 μg/ml), UV-inactivated HSV-1 (MOI=3), or with ConA (0.5 μg/ml) as a positive control. Culture media were harvested 48 h (for IL-2) or 96 h (for IL-4 and IFN-γ) later and analyzed by specific sandwich ELISA following the manufacturer's instructions (PharMingen, San Diego, Calif.).

Where [4] appears, read: Class II MHC allele DR11, read-out: IC50, DR11.
The mark [5] stands for this setting: Table V, […], read-out: IC50 DR11.
Where [6] appears, read: T cells treated with Abs to CD4.
[7] abbreviates: T cells treated with Abs to CD8.
Where [8] appears, read: splenocyte derived T cells, no Abs, average of triplicates (+/- SD).

`CC[C@H](C)[C@H](NC(=O)[C@H](CO)NC(=O)[C@@H]1CCCN1C(=O)[C@@H](NC(=O)[C@H](Cc1c[nH]cn1)NC(=O)[C@H](Cc1c[nH]c2ccccc12)NC(=O)[C@H](CC(N)=O)NC(=O)[C@@H]1CCCN1C(=O)[C@@H]1CCCN1C(=O)[C@@H](NC(=O)[C@H](CCC(N)=O)NC(=O)[C@@H]1CCCN1C(=O)[C@H](C)N)[C@@H](C)CC)[C@@H](C)CC)C(=O)N[C@@H](CCC(N)=O)C(=O)N[C@@H](CC(=O)O)C(=O)N[C@@H](C)C(=O)N[C@@H](C)C(=O)N[C@H](C(=O)N1CCC[C@H]1C(=O)N[C@@H](Cc1ccc(O)cc1)C(=O)N[C@@H](Cc1c[nH]cn1)C(=O)N1CCC[C@H]1C(=O)N1CCC[C@H]1C(=O)N[C@@H](C)C(=O)N[C@H](C(=O)N1CCC[C@H]1C(=O)N[C@@H](CC(N)=O)C(=O)N[C@@H](CC(N)=O)C(=O)N[C@@H](CCSC)C(=O)NCC(=O)N[C@@H](CC(C)C)C(=O)O)[C@@H](C)O)[C@@H](C)O` [HSV 35]: the IC50 in assay [1] was 2450 nM; in assay [2] (Class II MHC allele DP402), more than 100000 nM; in assay [2] (Table V, […]), more than 100000 nM; in assay [3] (IC50, DR11), 25000 nM; in assay [3] (IC50 DR11) it was 25000 nM. Besides, the “binding to I-E^d molecule” value at I-E^d molecule is listed as “strong binders”.

Consider `CC[C@H](C)[C@H](NC(=O)[C@H](CO)NC(=O)[C@H](CC(=O)O)NC(=O)[C@@H](NC(=O)[C@@H](NC(=O)[C@@H](NC(=O)CNC(=O)[C@H](CCC(N)=O)NC(=O)[C@H](CCC(N)=O)NC(=O)[C@H](Cc1ccc(O)cc1)NC(=O)[C@H](C)NC(=O)[C@H](CCC(N)=O)NC(=O)[C@@H]1CCCN1C(=O)[C@H](CO)NC(=O)[C@H](CC(C)C)NC(=O)[C@H](CS)NC(=O)[C@H](C)NC(=O)[C@@H](N)CO)C(C)C)[C@@H](C)O)C(C)C)C(=O)NCC(=O)N[C@@H](CCSC)C(=O)N[C@@H](CC(C)C)C(=O)N1CCC[C@H]1C(=O)N[C@@H](CCCNC(=N)N)C(=O)N[C@@H](Cc1ccccc1)C(=O)N[C@H](C(=O)N1CCC[C@H]1C(=O)N[C@@H](CCC(=O)O)C(=O)N[C@@H](CC(N)=O)C(=O)N[C@@H](CCC(N)=O)C(=O)N[C@@H](CCCNC(=N)N)C(=O)N[C@H](C(=O)N[C@H](C(=O)N[C@@H](C)C(=O)N[C@H](C(=O)N[C@@H](Cc1ccc(O)cc1)C(=O)O)C(C)C)C(C)C)[C@@H](C)O)[C@@H](C)CC` [HSV 37], for which the IC50 in assay [1] worked out at 200 nM; in assay [2] (Class II MHC allele DP402) it was 167 nM; in assay [2] (Table V, […]), 167 nM; in assay [3] (setting [4]) it was 44 nM; in assay [3] (setting [5]) it was 44 nM. The “binding to I-E^d molecule” value at I-E^d molecule is recorded as “strong binders”.

Consider `CC[C@H](C)[C@H](NC(=O)[C@H](CCC(N)=O)NC(=O)[C@@H]1CCCN1C(=O)[C@H](C)NC(=O)[C@H](CCC(=O)O)NC(=O)[C@H](CO)NC(=O)[C@@H]1CCCN1C(=O)[C@H](C)NC(=O)[C@H](CC(N)=O)NC(=O)[C@H](CC(C)C)NC(=O)[C@H](CC(C)C)NC(=O)[C@@H](NC(=O)[C@H](CO)NC(=O)[C@H](CCCNC(=N)N)NC(=O)[C@H](CS)NC(=O)[C@H](C)NC(=O)[C@H](CCCNC(=N)N)NC(=O)[C@H](CCC(=O)O)NC(=O)[C@H](CC(C)C)NC(=O)[C@@H](NC(=O)[C@H](C)NC(=O)[C@H](Cc1ccc(O)cc1)NC(=O)[C@H](Cc1ccc(O)cc1)NC(=O)[C@@H](NC(=O)[C@@H](NC(=O)[C@@H](NC(=O)[C@@H]1CCCN1C(=O)[C@H](CC(C)C)NC(=O)[C@H](CO)NC(=O)[C@@H]1CCCN1C(=O)[C@@H]1CCCN1C(=O)[C@@H](N)CCC(N)=O)[C@@H](C)CC)[C@@H](C)O)C(C)C)C(C)C)C(C)C)C(=O)N[C@H](C(=O)N[C@@H](CCCNC(=N)N)C(=O)O)C(C)C` [HSV 36], for which the IC50 was determined as 173 nM in assay [1]; 98 nM in assay [2] (Class II MHC allele DP402); 98 nM in assay [2] (Table V, […]); 120 nM in assay [3] (IC50, DR11); 120 nM in assay [3] (IC50 DR11). Moreover, in the assay on T-cells (setting [6]), the “IFNγ, Anti-CD4” value is listed as 6 (+/−2) ng/ml. Also, the “IL-2, Anti-CD4” value in the assay with T-cells (setting [6]) was 22 (+/−2) pg/ml. Further, in the assay with T-cells (setting [7]), the “IFNγ, Anti-CD8” value is recorded as 66 (+/−2) ng/ml. The “IL-2, Anti-CD8” value with T-cells (setting [7]) is on record as 88 (+/−5) pg/ml. In addition, in the assay with T-cells (setting [8]), the “IFNγ, None” value is recorded as 60 (+/−4) ng/ml. In addition, the “IL-2, None” value with T-cells (setting [8]) is 92 (+/−5) pg/ml.

Take `CC[C@H](C)[C@H](NC(=O)[C@@H]1CCCN1C(=O)[C@H](CS)NC(=O)[C@H](C)NC(=O)CNC(=O)[C@H](CC(C)C)NC(=O)[C@H](CO)NC(=O)[C@H](CCCCN)NC(=O)[C@@H](N)CC(N)=O)C(=O)N[C@@H](CCCNC(=N)N)C(=O)N[C@H](C(=O)N[C@@H](CCC(N)=O)C(=O)N1CCC[C@H]1C(=O)N[C@@H](CCCNC(=N)N)C(=O)N[C@@H](Cc1c[nH]c2ccccc12)C(=O)N[C@@H](CC(N)=O)C(=O)N[C@@H](Cc1ccc(O)cc1)C(=O)N[C@@H](Cc1ccc(O)cc1)C(=O)N[C@@H](CC(=O)O)C(=O)N[C@@H](CO)C(=O)N[C@@H](Cc1ccccc1)C(=O)N[C@@H](CO)C(=O)N[C@@H](C)C(=O)N[C@H](C(=O)N[C@@H](CO)C(=O)N[C@@H](CCC(=O)O)C(=O)N[C@@H](CC(=O)O)C(=O)N[C@@H](CC(N)=O)C(=O)N[C@@H](CC(C)C)C(=O)NCC(=O)N[C@@H](Cc1ccccc1)C(=O)N[C@@H](CC(C)C)C(=O)O)C(C)C)[C@@H](C)O` [HSV 33]: the IC50 in assay [1] was 19 nM; in assay [2] (Class II MHC allele DP402), 65 nM; in assay [2] (Table V, […]), 65 nM; in assay [3] (setting [4]), 289 nM; in assay [3] (setting [5]), 289 nM.
